Measured values as given in paper PMC5533298 (Structure (London, England : 1993), 2017).

Columns and labels:
Experiment in all cases: absorbance of p-nitrophenol at […] nm
Type in all cases: biochemical
EeGUS = molecular target: T1, EeGUS (Lachnospira eligens, UniProt C4Z6Z2); details: 800 uM PNPG, pH 6.5, 37 C, 50 mM HEPES
T1 sequence (C4Z6Z2 1-611): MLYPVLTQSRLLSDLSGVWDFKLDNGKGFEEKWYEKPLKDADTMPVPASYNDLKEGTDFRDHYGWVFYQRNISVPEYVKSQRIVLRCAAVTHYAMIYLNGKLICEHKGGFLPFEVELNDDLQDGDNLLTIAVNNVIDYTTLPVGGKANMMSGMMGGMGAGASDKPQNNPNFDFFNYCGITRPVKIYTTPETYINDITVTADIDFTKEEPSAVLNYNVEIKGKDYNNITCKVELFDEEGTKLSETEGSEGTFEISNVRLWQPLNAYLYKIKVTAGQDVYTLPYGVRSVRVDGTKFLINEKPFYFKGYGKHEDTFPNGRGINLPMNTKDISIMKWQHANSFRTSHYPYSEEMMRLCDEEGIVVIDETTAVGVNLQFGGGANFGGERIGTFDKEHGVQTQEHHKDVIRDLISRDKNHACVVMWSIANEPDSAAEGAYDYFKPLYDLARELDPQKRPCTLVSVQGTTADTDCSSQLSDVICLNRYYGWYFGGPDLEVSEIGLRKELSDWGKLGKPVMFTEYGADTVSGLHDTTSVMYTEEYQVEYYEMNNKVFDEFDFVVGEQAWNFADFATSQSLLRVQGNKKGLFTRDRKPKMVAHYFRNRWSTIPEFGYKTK

BdGUS = molecular target: T2, BdGUS (Phocaeicola dorei, UniProt Z9QL54SLC8); details: 800 uM PNPG, optimal pH, 37 C, 50 mM HEPES
T2 sequence (Z9QL54SLC8 25-879): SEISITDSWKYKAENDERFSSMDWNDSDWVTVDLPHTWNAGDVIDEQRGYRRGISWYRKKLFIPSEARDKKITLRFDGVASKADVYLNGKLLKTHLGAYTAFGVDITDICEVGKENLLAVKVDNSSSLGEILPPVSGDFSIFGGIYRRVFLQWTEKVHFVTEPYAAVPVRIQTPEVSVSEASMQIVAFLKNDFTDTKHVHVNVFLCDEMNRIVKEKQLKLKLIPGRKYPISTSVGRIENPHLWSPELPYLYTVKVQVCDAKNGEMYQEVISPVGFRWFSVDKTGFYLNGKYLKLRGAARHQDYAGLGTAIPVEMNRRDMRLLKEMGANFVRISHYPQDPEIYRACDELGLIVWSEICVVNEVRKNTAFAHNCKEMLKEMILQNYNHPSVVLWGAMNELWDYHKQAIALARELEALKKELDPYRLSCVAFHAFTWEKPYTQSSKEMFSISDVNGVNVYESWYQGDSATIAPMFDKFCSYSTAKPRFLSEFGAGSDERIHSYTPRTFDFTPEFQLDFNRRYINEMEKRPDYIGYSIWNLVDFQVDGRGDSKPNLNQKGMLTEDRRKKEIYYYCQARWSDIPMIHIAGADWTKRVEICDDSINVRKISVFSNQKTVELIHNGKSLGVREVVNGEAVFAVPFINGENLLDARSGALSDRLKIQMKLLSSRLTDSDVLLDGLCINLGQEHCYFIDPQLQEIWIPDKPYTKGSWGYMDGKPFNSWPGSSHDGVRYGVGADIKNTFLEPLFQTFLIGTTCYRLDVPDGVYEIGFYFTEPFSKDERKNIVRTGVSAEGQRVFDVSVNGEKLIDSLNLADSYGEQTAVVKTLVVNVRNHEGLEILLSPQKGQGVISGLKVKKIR

EcGUS = EcGUS (Escherichia coli, UniProt P05804); details: 800 uM PNPG, optimal pH (broad, up to 7.4), 37 C, 50 mM HEPES
PmGUS = molecular target: T3, PmGUS (Parabacteroides merdae, UniProt K5ZWV5); details: 800 uM PNPG, optimal pH, 37 C, 50 mM HEPES
T3 sequence (K5ZWV5 20-826): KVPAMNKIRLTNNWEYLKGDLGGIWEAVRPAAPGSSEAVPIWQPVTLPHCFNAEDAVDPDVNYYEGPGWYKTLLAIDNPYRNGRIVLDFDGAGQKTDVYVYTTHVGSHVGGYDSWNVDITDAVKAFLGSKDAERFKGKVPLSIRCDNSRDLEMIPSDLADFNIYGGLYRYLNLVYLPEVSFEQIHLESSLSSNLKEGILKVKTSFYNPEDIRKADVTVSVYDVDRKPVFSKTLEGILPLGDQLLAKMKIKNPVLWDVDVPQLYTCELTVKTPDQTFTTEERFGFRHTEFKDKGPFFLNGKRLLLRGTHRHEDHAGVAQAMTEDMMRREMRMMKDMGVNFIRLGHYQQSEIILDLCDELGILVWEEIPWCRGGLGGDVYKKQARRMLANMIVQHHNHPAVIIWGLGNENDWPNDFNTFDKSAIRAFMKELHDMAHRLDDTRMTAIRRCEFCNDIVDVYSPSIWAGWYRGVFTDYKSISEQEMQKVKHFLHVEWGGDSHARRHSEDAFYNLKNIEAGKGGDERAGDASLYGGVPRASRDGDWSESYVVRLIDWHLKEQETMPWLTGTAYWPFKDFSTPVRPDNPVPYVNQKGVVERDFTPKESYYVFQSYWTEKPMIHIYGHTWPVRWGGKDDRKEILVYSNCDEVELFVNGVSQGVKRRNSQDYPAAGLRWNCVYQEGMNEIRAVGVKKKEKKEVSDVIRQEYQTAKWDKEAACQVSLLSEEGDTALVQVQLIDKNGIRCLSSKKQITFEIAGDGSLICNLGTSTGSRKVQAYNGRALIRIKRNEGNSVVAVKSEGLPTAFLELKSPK

BuGUS = molecular target: T4, BuGUS (Bacteroides uniformis, UniProt A0A078SUX9); details: 800 uM PNPG, optimal pH, 37 C, 50 mM HEPES
T4 sequence (A0A078SUX9 32-886 limits assumed): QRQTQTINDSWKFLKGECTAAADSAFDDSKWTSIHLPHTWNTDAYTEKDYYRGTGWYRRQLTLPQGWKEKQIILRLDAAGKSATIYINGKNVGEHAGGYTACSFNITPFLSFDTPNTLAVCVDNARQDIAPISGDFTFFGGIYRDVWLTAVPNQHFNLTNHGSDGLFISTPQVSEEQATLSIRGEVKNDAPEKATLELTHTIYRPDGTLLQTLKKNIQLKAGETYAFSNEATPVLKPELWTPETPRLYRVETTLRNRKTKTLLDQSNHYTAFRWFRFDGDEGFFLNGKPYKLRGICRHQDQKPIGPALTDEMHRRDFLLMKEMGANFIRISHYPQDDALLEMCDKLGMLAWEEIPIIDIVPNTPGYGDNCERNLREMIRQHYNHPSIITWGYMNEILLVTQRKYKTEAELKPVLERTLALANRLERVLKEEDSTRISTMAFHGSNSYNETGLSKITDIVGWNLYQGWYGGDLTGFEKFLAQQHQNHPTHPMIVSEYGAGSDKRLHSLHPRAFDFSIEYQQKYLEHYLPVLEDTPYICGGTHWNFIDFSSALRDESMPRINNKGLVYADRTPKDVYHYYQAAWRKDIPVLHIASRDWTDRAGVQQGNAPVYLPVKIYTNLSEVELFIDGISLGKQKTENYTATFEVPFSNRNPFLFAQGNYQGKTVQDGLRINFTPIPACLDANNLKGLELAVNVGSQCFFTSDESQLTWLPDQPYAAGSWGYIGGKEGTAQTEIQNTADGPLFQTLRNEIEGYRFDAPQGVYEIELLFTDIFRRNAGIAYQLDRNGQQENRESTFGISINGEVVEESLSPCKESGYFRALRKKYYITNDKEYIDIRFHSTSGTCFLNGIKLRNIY

BfGUS = BfGUS (Bacteroides fragilis, UniProt Q5LIC7); details: 800 uM PNPG, optimal pH, 37 C, 50 mM HEPES
Sequence of BfGUS (Q5LIC7 38-693): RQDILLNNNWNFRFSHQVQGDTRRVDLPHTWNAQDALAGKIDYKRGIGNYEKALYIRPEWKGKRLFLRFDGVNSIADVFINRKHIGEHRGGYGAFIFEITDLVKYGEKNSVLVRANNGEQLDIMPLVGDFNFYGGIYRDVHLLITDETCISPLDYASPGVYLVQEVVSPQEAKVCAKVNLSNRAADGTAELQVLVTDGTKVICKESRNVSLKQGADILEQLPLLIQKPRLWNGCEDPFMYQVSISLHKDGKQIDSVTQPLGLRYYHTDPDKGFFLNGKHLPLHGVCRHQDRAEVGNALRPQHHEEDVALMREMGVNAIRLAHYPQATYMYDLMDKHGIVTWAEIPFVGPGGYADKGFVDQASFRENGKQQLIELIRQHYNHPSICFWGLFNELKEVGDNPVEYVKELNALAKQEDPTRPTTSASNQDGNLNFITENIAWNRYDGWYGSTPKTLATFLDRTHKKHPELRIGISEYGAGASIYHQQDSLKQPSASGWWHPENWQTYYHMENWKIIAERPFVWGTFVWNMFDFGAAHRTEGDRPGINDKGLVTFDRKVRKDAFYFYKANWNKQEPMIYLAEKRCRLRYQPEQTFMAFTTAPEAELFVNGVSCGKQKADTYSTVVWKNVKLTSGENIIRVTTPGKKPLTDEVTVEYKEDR

Sequence of EcGUS (P05804 whole entry): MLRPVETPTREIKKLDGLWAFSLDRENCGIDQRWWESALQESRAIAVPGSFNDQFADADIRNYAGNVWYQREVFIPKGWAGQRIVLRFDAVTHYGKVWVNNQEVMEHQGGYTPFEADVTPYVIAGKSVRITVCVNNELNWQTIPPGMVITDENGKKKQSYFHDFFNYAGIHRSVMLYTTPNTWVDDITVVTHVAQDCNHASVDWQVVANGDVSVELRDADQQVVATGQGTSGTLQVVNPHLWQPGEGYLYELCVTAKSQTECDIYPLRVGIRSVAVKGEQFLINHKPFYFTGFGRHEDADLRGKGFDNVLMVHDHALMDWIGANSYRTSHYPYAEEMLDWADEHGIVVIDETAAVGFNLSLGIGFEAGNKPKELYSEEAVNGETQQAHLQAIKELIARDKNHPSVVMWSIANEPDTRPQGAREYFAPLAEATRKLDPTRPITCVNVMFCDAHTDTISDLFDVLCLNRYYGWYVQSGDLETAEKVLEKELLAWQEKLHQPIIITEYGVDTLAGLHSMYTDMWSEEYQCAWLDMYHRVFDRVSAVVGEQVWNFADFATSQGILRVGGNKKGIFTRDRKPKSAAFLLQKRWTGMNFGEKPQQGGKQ

## O=C(O)[C@H]1O[C@@H](Oc2ccc([N+](=O)[O-])cc2)[C@H](O)[C@@H](O)[C@@H]1O [PNPG]
EeGUS
  absorbance of p-nitrophenol at 410 nm: E. coli and Eu. eligens GUS are remarkably efficient at PNPG processing
BdGUS
  absorbance of p-nitrophenol at 410 nm: PNPG kinetic studies with each enzyme at its optimum pH
EcGUS
  absorbance of p-nitrophenol at 410 nm: E. coli and Eu. eligens GUS are remarkably efficient at PNPG processing
PmGUS
  absorbance of p-nitrophenol at 410 nm: PNPG kinetic studies with each enzyme at its optimum pH
BuGUS
  absorbance of p-nitrophenol at 410 nm: PNPG kinetic studies with each enzyme at its optimum pH
BfGUS
  absorbance of p-nitrophenol at 410 nm: PNPG kinetic studies with each enzyme at its optimum pH
